Experiment [1] has as its target T1, NK3 receptor (Homo sapiens, UniProt P29371).
T1 construct: host or cells: Chinese hamster ovary cells (membranes)
T1 sequence (P29371 1-465): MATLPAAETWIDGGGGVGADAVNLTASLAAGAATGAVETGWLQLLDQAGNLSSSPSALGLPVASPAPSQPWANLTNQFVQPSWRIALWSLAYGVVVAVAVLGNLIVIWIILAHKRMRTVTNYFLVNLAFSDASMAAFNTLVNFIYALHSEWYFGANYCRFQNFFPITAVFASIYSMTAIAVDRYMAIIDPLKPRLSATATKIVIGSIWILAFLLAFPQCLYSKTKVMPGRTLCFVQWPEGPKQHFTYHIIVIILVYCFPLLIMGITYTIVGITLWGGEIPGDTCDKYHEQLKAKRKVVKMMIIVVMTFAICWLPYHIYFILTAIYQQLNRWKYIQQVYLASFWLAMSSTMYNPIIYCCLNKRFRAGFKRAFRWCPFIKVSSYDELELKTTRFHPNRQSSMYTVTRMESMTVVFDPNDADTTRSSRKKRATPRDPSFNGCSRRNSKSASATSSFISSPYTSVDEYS
In words: NK3 receptor binding assay, [125I]-[MePhe7]neurokinin B, Chinese hamster ovary cell membranes. Particulars: competition with [125I]-[MePhe7]neurokinin B 40-100 pM, 90 minutes at 22° C., CHO cell membranes.

In experiment [2] the target is T2, NK3 (Cavia porcellus, UniProt P30098).
T2 sequence (P30098 1-440): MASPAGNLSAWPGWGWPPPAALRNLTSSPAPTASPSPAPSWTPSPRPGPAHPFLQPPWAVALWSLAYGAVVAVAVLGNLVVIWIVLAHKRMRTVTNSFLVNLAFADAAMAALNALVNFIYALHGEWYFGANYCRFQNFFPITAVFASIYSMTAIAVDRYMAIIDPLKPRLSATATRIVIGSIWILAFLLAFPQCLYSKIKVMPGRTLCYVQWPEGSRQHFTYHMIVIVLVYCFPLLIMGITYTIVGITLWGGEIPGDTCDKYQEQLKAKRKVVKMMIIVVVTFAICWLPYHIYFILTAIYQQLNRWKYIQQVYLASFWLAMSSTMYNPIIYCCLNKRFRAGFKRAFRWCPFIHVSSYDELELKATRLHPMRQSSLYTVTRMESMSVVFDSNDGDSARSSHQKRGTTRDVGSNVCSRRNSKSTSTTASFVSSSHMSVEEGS
In words: guinea pig ileum assay (Schild analysis of contractile responses). The note with it: NK3 antagonist activity; antagonist dissociation constant by Schild analysis. Also on record: in vitro peripheral guinea pig ileum assay; from tissue; host or cells: guinea pig ileum (organ bath). The class given is cell-based.

For experiment [3], the target named is T2, NK3. Nature of the experiment: guinea pig medial habenula assay (block of senktide-induced increases in firing rate, brain slice). Set-up: guinea pig medial habenula neurones in a brain slice preparation in vitro; from tissue; host or cells: guinea pig medial habenula brain slice. The note with it: NK3 antagonist activity; mean equilibrium constant against senktide; brain slice in vitro; read-out: Guinea Pig Medial Habenula (Ke). The experiment is classed as cell-based.

For the compound `CC(Cc1ccccc1)(NC(=O)[C@H](Cc1ccccc1)NC(=O)OCC1CCCCC1)C(N)=O` (mixture of isomers) [Example 16, DL-Phenylalaninamide, N-[(cyclohexylmethoxy)carbonyl]-L-phenylalanyl-α-methyl-], the IC50 in experiment [1] worked out at 1220 nM.
The compound `COc1ccc(CCCCNC(=O)[C@@](C)(Cc2ccccc2)NC(=O)[C@H](Cc2ccccc2)NC(=O)OC(C)(C)C)cc1` [Example 3] returned an IC50 in experiment [1] of 83 nM. This IC50 lies about 15-fold lower than the previous one.
Same read-out and setting: for `CC(C)(C)OC(=O)NC(Cc1cccc(Cl)c1)C(=O)N[C@](C)(Cc1ccccc1)C(N)=O` (mixture of isomers) [Example 21, D-Phenylalaninamide, 3-chloro-N-[(1,1-dimethylethoxy)-carbonyl]-DL-phenylalanyl-α-methyl-] the value was 904 nM; for `CC(C)(C)OC(=O)N[C@@H](Cc1ccccc1)C(=O)NC(C)(Cc1ccccc1)C(=O)NCCCc1ccc(O)cc1` (mixture of isomers) [Example 4, DL-Phenylalaninamide, N-[(1,1-dimethylethoxy)carbonyl]-L-phenylalanyl-N-[3-(4-hydroxyphenyl)propyl]-α-methyl-], 88 nM.
On the same count and under the same terms, for `CC(=O)NCCNC(=O)C(C)(Cc1ccccc1)NC(=O)[C@H](Cc1ccccc1)NC(=O)OC(C)(C)C` (mixture of isomers) [Example 10, DL-Phenylalaninamide, N-[(1,1-dimethylethoxy)carbonyl]-L-phenylalanyl-N-[2-(acetylamino)ethyl]-α-methyl-] the value was 180 nM; for `CC(C)(C)OC(=O)N[C@@H](Cc1ccccc1)C(=O)NC(C)(Cc1cccc(Cl)c1)C(N)=O` (mixture of isomers) [Example 20, DL-Phenylalaninamide, N-[(1,1-dimethylethoxy)carbonyl]-L-phenylalanyl-3-chloro-α-methyl-], 1350 nM; for `CC(Cc1ccccc1)(NC(=O)[C@H](Cc1ccccc1)NC(=O)OCc1ccc(Cl)c(Cl)c1)C(N)=O` (mixture of isomers) [Example 18, DL-Phenylalaninamide, N-[[(3,4-dichlorophenyl)-methoxy]carbonyl]-L-phenylalanyl-α-methyl-], 1530 nM.
In experiment [1], `CC(C)(C)OC(=O)N[C@@H](Cc1ccccc1)C(=O)NC(C)(Cc1ccccc1)C(=O)NC1CCCC1` (mixture of isomers) [Example 7, DL-Phenylalaninamide, N-[(1,1-dimethylethoxy)carbonyl]-L-phenylalanyl-N-cyclopentyl-α-methyl-] yielded an IC50 of 556 nM.
`CC(C)(C)OC(=O)N[C@@H](Cc1ccccc1)C(=O)NC(C)(Cc1ccccc1)C(=O)NCCCCCc1ccccc1` (mixture of isomers) [Example 6, DL-Phenylalaninamide, N-[(1,1-dimethylethoxy)carbonyl]-L-phenylalanyl-α-methyl-N-(5-phenylpentyl)-] yielded an IC50 in experiment [1] of 77 nM.
`CC(C)(C)OC(=O)N[C@@H](Cc1ccccc1)C(=O)NC(C)(Cc1ccccc1)C(=O)NCCc1ccc(Cl)cc1` (mixture of isomers) [Example 12, DL-Phenylalaninamide, N-[(1,1-dimethylethoxy)carbonyl]-L-phenylalanyl-N-[2-(4-chlorophenyl)ethyl]-α-methyl-] registered an IC50 in experiment [1] of 141 nM. This IC50 lies about 1.8-fold higher than the previous one.
In experiment [1], `CC(C)(C)OC(=O)N[C@@H](Cc1ccccc1)C(=O)NC(C)(Cc1ccccc1)C(=O)NCCC1CCCC1` (mixture of isomers) [Example 11, DL-Phenylalaninamide, N-[(1,1-dimethylethoxy)carbonyl]-L-phenylalanyl-N-(2-cyclopentylethyl)-α-methyl-] registered an IC50 of 129 nM.
The same measure, in the same setting: next, `CC(C)(C)OC(=O)NC(CNC(Cc1ccccc1)C(N)=O)Cc1ccccc1` (stereo not drawn) [Example 22, Carbamic acid, [2-[[2-amino-2-oxo-1-(phenylmethyl)-ethyl]amino]-1-(phenylmethyl)ethyl]-, 1,1-dimethylethyl ester]: 4330 nM.
The compound “DL-Phenylalaninamide, N-[[(octahydro-2-naphthalenyl)-oxy]carbonyl]-L-phenylalanyl-α-methyl [Example 19]” came in with an IC50 in experiment [1] of 3060 nM. The IC50 values of the last two compounds are within 1.5-fold of each other.
`CC(C)(C)OC(=O)N[C@@H](Cc1ccccc1)C(=O)NC(C)(Cc1ccccc1)C(=O)NCC1CCC(C(=O)O)CC1` (mixture of isomers) [Example 13, DL-Phenylalaninamide, N-[(1,1-dimethylethoxy)carbonyl]-L-phenylalanyl-N-[(4-carboxycyclohexyl)methyl]-α-methyl-, trans-]: the IC50 in experiment [1] came out at 719 nM. This IC50 lies about 4.3-fold lower than the previous one.
As to `CC(C)COC(=O)N[C@@H](Cc1ccccc1)C(=O)NC(C)(Cc1ccccc1)C(N)=O` (mixture of isomers) [Example 17, DL-Phenylalaninamide, N-[(2-methylpropoxy)carbonyl]-L-phenylalanyl-α-methyl-], the IC50 in experiment [1] is 1310 nM.
With `CC(C)(C)OC(=O)N[C@@H](Cc1ccccc1)C(=O)N[C@](C)(Cc1ccccc1)C(=O)NCCCCCCCCC(N)=O` [Example 2, D-Phenylalaninamide, N-[(1,1-dimethylethoxy)carbonyl]-L-phenylalanyl-N-(9-amino-9-oxononyl)-α-methyl-], in experiment [2], the antagonist dissociation constant (Kb) amounted to 10 nM. For the same compound, in experiment [3], the Kd stood at 25 nM.
`CC(C)CCNC(=O)C(C)(Cc1ccccc1)NC(=O)[C@H](Cc1ccccc1)NC(=O)OC(C)(C)C` (mixture of isomers) [Example 5, DL-Phenylalaninamide, N-[(1,1-dimethylethoxy)carbonyl]-L-phenylalanyl-α-methyl-N-3-methylbutyl-] showed an IC50 in experiment [1] of 123 nM.

Usually IC50 stands for the point on the concentration scale where inhibition reaches its midpoint. Low values mean inhibition by little substance, high ones a need for much substance. For orientation: Kb means the equilibrium dissociation constant of an antagonist, usually derived from a functional assay. A lower Kb goes with a more potent antagonist.

Values taken from US5767088A, “Tachykinin antagonists” (Warner-Lambert Company, priority 1996, dated 1998).
